{"source": "ChEMBL document CHEMBL1136353", "about": "“Synthesis of novel fluorescent probes for the molecular chaperone Hsp90” (Bioorg Med Chem Lett, 2003)", "biological_target": "Heat shock protein HSP90 (Homo sapiens, UniProt P07900+P08238)", "experiment": "Binding affinity towards Heat shock protein HSP 90-alpha inhibitor", "assay_type": "protein assay", "data": [{"smiles": "CO[C@H]1/C=C\\C=C(/C)C(=O)NC2=CC(=O)C(NCCCCCCO/C(S)=N\\c3ccc(-c4c5ccc(=O)cc-5oc5cc(O)ccc45)c(C(=O)O)c3)=C(C[C@@H](C)C[C@H](OC)[C@@H](O)[C@@H](C)/C=C(\\C)[C@@H]1OC(N)=O)C2=O", "values": [{"measurement": "Kds", "value": 23.3, "unit": "nM"}]}, {"smiles": "CO[C@H]1/C=C\\C=C(/C)C(=O)NC2=CC(=O)C(NCCNC(=O)CCC3=N/C(=C\\c4c(C)cc(C)n4B(F)F)C=C3)=C(C[C@@H](C)C[C@H](OC)[C@@H](O)[C@@H](C)/C=C(\\C)[C@@H]1OC(N)=O)C2=O", "values": [{"measurement": "Kds", "value": 33.8, "unit": "nM"}]}]}
